# Literature values as cited in EP2691395B1, “PROCESSES FOR PREPARING TOFACITINIB SALTS” (ratiopharm GmbH, priority 2011, dated 2012).
# Settings: acids listed as possible first acid
row,SMILES,pKa
1,CCCCCCCC(=O)O [caprylic or octanoic acid],about 4.91
2,O=C(O)[C@H](O)[C@@H](O)[C@H](O)[C@H](O)CO [D-gluconic acid],about 3.76
3,CC(CC(=O)O)C(=O)O (stereo not drawn) [methylsuccinic acid],about 4.13
4,O=C(O)c1ccc(O)cc1 [p-hydroxybenzoic acid],about 4.48
5,O=C(O)c1cccc(O)c1 [m-hydroxybenzoic acid],about 4.06
6,O=C(O)CNC(=O)c1ccccc1 [hippuric acid],about 3.55
7,O=C(O)O [carbonic acid],about 6.46
8,O=C(O)/C=C\c1ccccc1 [cis-cinnamic acid],about 3.89
9,O=C(O)Cc1ccccc1 [phenylacetic acid],about 4.28
10,CC1(C(=O)O)CCC(C(=O)O)C1(C)C (stereo not drawn) [(+)-camphoric acid],about 4.72
11,CCCCCCCC/C=C\CCCCCCCC(=O)O [oleic acid],about 4
12,O=C(O)c1cc(=O)[nH]c(=O)[nH]1 [orotic acid],about 5.85
13,C=CCCCCCCCCC(=O)O [undecylenic acid],about 4.9
14,O=c1[nH]c(=O)c2[nH]c(=O)[nH]c2[nH]1 [uric acid],about 3.89
15,O=C(O)CCO [3-hydroxypropanoic acid],about 4.51
16,CCCCCCCCCCCCCCCC(=O)O [palmitic acid],about 4.9
17,O=C(O)CCCO [4-hydroxybutanoic acid],about 4.72
18,CCCCCCCCCCCC(=O)O [lauric acid],about 4.9
19,CCCCCC(=O)O [hexanoic or caproic acid],about 4.85
20,CCCCC(=O)O [pentanoic acid],about 4.84
21,O=C(O)CCCC(=O)O [glutaric acid],about 4.31
22,CC(=O)Nc1ccc(C(=O)O)cc1 [4-acetamidobenzoic acid],about 4.3
23,CCCCCCCCCCCCCCCCCC(=O)O [stearic acid],about 4.9
24,CC(O)CC(=O)O (stereo not drawn) [3-hydroxybutanoic acid],about 4.70
